Results as given in ChEMBL document CHEMBL5696442, “Discovery of type II inhibitors of TGFβ-activated kinase 1 (TAK1) and mitogen-activated protein kinase kinase kinase kinase 2 (MAP4K2)” (J Med Chem, 2015).
Calls of active or inactive are those of the source. No cut-off for these calls is given here.

Tests used:
[1] = target: T1, NUAK family SNF1-like kinase 1 (Homo sapiens) (UniProt O60285); experiment: Inhibition of ARK5 (unknown origin) at 10 uM by Ambit Kinomescan binding assay
T1 sequence (whole entry): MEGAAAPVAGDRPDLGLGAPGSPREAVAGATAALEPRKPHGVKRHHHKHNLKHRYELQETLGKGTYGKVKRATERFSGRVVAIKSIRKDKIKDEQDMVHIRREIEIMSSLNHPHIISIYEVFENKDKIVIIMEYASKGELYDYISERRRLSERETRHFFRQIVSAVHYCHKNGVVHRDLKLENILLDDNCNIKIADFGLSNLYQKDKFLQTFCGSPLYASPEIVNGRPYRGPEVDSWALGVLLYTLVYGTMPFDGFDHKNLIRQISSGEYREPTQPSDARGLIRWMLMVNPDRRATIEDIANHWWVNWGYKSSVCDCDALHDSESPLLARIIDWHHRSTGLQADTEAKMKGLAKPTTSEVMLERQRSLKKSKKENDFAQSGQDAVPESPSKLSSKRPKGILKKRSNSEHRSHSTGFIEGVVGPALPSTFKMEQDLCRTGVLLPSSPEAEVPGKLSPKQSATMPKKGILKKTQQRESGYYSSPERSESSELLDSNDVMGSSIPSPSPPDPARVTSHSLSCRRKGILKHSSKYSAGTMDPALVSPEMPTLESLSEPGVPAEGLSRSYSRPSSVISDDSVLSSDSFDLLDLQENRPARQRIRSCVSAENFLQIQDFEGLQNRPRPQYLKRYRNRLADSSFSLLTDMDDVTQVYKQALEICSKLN

[2] = target: Ephrin type-A receptor 7 (Homo sapiens) (UniProt Q15375); experiment: Inhibition of EPHA7 (unknown origin) at 10 uM by Ambit Kinomescan binding assay
[3] = target: Vascular endothelial growth factor receptor 3 (Homo sapiens) (UniProt P35916); experiment: Inhibition of FLT4 (unknown origin) at 10 uM by Ambit Kinomescan binding assay relative to control
[4] = target: Phosphatidylinositol 4,5-bisphosphate 3-kinase catalytic subunit alpha isoform (Homo sapiens) (UniProt P42336); experiment: Inhibition of PIK3CA (unknown origin) at 10 uM by Ambit Kinomescan binding assay
Chain of Phosphatidylinositol 4,5-bisphosphate 3-kinase catalytic subunit alpha isoform (Homo sapiens) (P42336 whole entry, canonical isoform): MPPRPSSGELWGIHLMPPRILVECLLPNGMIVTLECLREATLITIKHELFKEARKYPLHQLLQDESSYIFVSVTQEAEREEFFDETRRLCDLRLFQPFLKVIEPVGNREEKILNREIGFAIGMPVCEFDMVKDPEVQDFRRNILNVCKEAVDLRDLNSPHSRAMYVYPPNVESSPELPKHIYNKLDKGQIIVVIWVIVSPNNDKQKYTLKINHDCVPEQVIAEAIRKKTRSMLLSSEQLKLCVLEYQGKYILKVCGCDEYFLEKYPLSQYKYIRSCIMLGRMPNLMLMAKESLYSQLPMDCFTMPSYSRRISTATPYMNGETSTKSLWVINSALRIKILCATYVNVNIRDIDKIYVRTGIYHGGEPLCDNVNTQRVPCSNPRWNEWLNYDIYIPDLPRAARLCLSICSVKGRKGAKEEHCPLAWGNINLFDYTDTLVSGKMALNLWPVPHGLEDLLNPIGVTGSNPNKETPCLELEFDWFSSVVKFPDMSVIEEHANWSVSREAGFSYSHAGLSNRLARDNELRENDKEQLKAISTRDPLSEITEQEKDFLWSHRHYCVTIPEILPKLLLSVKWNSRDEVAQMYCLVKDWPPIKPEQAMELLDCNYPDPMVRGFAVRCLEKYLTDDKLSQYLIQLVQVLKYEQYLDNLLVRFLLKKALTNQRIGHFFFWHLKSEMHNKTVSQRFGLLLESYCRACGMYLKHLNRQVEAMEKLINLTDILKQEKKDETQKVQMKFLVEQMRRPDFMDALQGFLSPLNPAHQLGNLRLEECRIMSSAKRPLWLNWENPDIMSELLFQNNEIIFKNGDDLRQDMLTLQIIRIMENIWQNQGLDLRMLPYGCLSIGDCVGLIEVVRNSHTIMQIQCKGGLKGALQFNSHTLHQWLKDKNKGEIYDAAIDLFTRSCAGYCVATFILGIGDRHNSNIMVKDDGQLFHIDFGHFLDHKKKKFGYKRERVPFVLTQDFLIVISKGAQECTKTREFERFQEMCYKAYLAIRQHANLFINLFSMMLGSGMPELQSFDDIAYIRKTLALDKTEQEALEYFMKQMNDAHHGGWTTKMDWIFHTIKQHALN

[5] = target: Serine/threonine-protein kinase N1 (Homo sapiens) (UniProt Q16512); experiment: Inhibition of PKN1 (unknown origin) at 10 uM by Ambit Kinomescan binding assay
[6] = target: Ribosomal protein S6 kinase alpha-5 (Homo sapiens) (UniProt O75582); experiment: Inhibition of N-terminal RPS6KA5 kinase domain 1 (unknown origin) at 10 uM by Ambit Kinomescan binding assay relative to control
Chain of Ribosomal protein S6 kinase alpha-5 (Homo sapiens) (O75582 whole entry, looked up, the tested form may be a part): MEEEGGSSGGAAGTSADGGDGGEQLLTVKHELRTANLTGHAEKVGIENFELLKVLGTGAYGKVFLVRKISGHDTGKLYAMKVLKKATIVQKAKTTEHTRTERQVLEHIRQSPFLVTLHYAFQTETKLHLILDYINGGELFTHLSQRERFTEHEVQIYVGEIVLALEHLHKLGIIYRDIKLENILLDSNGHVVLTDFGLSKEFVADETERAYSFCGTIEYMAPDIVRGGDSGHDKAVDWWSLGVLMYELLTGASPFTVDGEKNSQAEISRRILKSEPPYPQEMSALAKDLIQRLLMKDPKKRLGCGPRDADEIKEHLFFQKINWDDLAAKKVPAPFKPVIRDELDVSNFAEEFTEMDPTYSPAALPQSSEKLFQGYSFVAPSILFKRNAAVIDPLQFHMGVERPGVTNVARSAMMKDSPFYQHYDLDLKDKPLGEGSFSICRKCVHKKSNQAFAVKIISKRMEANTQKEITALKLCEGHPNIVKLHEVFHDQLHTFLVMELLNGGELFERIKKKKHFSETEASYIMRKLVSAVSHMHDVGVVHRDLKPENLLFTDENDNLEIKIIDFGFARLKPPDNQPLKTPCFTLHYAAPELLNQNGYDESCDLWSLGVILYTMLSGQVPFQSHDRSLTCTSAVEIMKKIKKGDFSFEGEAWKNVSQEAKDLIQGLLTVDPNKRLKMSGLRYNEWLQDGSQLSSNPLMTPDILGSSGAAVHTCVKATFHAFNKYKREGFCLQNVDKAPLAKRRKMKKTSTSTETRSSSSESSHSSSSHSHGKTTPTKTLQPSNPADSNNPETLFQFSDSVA

[7] = target: Tyrosine-protein kinase CSK (Homo sapiens, UniProt P41240); experiment: Inhibition of CSK ACT labeling site harbouring VSDFGLTKEASSTQDTGK in human A-375 cells at 5 uM by KiNativ Profiling analysis relative to control; format: cell-based
Chain of Tyrosine-protein kinase CSK (P41240 2-450 limits assumed): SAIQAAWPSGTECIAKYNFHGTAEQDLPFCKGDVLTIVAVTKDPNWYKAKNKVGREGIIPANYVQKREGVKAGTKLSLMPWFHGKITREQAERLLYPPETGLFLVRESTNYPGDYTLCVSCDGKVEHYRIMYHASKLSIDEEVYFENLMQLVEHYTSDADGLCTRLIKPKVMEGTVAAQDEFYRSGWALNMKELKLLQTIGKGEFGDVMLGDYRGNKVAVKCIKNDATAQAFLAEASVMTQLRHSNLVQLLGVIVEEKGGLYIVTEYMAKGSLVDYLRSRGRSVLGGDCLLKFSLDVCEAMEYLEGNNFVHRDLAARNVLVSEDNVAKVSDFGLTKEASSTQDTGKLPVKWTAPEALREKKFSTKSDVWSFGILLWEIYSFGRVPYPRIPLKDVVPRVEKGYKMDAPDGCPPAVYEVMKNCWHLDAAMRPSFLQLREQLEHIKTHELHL

[8] = target: Cyclin-dependent kinase 20 (Homo sapiens) (UniProt Q8IZL9); experiment: Inhibition of CCRK Lys2 labeling site in human A-375 cells at 0.5 uM by KiNativ Profiling analysis relative to control; format: cell-based
Chain of Cyclin-dependent kinase 20 (Homo sapiens) (Q8IZL9 whole entry): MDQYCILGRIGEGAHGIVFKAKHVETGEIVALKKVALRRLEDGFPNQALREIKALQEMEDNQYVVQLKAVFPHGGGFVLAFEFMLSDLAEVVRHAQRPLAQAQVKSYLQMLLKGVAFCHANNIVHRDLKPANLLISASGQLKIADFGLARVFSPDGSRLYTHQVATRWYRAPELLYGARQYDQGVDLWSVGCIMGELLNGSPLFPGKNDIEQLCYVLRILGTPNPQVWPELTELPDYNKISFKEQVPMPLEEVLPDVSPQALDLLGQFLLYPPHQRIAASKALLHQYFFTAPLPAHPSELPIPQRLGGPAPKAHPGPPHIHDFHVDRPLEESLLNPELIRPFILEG

[9] = target: T2, Serine/threonine-protein kinase ULK1 (Homo sapiens) (UniProt O75385); experiment: Inhibition of ULK1 Lys2 labeling site in human A-375 cells at 0.5 uM by KiNativ Profiling analysis relative to control; format: cell-based
T2 sequence (whole entry): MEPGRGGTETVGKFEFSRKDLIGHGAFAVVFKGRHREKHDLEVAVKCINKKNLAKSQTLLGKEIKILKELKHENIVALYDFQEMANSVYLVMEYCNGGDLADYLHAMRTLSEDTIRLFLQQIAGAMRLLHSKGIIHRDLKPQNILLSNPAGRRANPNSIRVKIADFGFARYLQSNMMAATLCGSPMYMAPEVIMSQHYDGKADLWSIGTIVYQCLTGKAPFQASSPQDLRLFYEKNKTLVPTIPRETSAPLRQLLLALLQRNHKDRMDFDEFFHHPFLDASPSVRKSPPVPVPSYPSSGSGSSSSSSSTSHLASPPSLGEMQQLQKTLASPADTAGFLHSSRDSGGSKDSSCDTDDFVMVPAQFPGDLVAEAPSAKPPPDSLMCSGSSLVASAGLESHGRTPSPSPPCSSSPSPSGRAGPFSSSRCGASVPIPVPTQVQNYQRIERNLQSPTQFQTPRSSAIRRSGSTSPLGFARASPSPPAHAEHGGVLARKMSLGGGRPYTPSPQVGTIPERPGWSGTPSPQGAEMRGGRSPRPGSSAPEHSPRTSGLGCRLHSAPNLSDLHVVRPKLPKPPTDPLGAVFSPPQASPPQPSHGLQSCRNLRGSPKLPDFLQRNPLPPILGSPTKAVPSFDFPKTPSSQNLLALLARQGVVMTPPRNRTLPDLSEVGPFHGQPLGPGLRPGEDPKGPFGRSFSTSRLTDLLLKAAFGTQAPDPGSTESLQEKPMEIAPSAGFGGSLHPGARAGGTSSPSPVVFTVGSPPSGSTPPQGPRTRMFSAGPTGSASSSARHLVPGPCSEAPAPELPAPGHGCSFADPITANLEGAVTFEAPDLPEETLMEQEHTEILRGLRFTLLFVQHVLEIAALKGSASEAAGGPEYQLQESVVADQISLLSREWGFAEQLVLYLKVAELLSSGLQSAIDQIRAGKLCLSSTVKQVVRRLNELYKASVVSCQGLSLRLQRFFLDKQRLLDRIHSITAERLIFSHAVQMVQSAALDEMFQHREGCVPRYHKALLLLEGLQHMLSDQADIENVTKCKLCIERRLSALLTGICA

[10] = target: Macrophage-stimulating protein receptor (Homo sapiens) (UniProt Q04912); experiment: Inhibition of MST1R (unknown origin) at 1 uM by Ambit Kinomescan binding assay relative to control
[11] = target: Glycogen synthase kinase-3 alpha (Homo sapiens) (UniProt P49840); experiment: Inhibition of GSK3A Lys2 labeling site in human A-375 cells at 0.5 uM by KiNativ Profiling analysis relative to control; format: cell-based
Chain of Glycogen synthase kinase-3 alpha (Homo sapiens) (P49840 2-483 limits assumed): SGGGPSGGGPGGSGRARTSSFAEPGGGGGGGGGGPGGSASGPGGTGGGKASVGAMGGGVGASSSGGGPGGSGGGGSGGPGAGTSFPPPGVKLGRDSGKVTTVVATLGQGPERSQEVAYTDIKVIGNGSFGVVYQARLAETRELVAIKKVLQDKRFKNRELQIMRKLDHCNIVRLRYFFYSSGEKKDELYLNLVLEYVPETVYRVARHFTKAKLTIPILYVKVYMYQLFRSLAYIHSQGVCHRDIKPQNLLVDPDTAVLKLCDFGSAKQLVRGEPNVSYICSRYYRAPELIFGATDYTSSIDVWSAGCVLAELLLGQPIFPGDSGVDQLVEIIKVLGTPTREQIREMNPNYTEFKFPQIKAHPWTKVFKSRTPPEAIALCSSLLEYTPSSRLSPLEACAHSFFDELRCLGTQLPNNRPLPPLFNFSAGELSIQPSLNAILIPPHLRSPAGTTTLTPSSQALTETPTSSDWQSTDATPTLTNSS

[12] = target: MAP/microtubule affinity-regulating kinase 3 (Homo sapiens) (UniProt P27448); experiment: Inhibition of MARK3 Lys2 labeling site in human A-375 cells at 0.5 uM by KiNativ Profiling analysis relative to control; format: cell-based
[13] = target: Cyclin-G-associated kinase (Homo sapiens) (UniProt O14976); experiment: Inhibition of GAK (unknown origin) at 1 uM by Ambit Kinomescan binding assay relative to control; values are per cent of control
[14] = target: Myosin light chain kinase, smooth muscle (Homo sapiens) (UniProt Q15746); experiment: Inhibition of MYLK (unknown origin) at 1 uM by Ambit Kinomescan binding assay relative to control; values are per cent of control
Chain of Myosin light chain kinase, smooth muscle (Homo sapiens) (Q15746 whole entry, canonical isoform): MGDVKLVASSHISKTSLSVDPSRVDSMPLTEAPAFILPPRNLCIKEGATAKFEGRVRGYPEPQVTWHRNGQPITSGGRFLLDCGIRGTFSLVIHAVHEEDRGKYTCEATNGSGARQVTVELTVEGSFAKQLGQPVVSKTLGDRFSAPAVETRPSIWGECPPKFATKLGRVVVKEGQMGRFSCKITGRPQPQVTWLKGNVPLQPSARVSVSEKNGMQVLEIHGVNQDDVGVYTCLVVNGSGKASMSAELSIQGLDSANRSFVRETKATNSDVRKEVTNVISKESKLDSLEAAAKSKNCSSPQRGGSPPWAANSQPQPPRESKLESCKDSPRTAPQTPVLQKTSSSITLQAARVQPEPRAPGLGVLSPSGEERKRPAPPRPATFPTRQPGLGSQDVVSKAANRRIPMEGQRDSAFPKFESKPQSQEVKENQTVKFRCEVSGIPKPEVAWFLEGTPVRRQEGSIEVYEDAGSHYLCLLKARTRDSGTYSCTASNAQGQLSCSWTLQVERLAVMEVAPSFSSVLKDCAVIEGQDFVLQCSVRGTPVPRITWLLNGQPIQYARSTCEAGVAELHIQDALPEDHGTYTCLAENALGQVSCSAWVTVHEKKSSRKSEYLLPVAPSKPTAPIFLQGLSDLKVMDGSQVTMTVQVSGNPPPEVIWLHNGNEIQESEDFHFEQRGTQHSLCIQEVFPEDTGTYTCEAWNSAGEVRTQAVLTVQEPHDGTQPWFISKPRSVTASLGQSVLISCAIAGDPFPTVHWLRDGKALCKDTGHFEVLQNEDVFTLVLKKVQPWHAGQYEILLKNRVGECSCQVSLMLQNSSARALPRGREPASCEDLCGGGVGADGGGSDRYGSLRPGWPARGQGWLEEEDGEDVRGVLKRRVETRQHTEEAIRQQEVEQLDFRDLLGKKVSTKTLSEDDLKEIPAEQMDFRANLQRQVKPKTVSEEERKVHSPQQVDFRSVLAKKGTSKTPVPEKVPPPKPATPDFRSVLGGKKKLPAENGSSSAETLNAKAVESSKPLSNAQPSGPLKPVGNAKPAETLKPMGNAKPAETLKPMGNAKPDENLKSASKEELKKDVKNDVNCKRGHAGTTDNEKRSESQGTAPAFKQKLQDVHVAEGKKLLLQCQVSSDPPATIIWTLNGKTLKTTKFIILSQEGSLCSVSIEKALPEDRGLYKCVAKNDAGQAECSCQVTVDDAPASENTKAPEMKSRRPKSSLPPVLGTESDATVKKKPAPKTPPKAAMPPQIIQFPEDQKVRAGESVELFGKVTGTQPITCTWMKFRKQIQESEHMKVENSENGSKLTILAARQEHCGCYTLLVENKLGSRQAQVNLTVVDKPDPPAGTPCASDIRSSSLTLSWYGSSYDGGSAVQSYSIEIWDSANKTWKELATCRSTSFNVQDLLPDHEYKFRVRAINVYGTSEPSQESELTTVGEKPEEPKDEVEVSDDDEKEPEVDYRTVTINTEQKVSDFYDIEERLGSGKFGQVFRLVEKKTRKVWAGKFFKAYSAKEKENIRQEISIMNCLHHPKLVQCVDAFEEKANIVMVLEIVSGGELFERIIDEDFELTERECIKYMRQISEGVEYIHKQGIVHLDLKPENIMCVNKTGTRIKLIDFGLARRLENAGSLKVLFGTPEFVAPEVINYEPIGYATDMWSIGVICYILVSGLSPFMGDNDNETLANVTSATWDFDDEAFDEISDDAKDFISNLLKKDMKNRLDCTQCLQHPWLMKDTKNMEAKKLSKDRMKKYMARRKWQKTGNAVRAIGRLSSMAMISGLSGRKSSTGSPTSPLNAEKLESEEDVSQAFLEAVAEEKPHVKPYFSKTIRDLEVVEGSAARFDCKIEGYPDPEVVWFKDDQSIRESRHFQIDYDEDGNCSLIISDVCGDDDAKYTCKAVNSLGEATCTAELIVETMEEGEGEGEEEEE

[15] = target: Phosphatidylinositol 4,5-bisphosphate 3-kinase catalytic subunit gamma isoform (Homo sapiens) (UniProt P48736); experiment: Inhibition of PIK3CG (unknown origin) at 1 uM by Ambit Kinomescan binding assay relative to control; values are per cent of control

Row | Structure (SMILES) | inhibition [1] | inhibition [2] | inhibition [3] [%] | inhibition [4] | inhibition [5] | inhibition [6] | inhibition [7] [%] | inhibition [8] [%] | inhibition [9] [%] | inhibition [10] [%] | inhibition [11] [%] | inhibition [12] [%] | residual activity [13] [%] | residual activity [14] [%] | residual activity [15] [%]
1 | CCN1CCN(Cc2ccc(NC(=O)c3ccc(C)c(Oc4ccnc5[nH]ccc45)c3)cc2C(F)(F)F)CC1 | inactive | inactive | 0.2 | inactive | inactive | inactive | 79 | -2.3 | -6.3 |  |  |  |  |  | 
2 | CCN1CCN(Cc2ccc(NC(=O)c3ccc(C)c(/C=C/c4cnc5[nH]ccc5c4OC)c3)cc2C(F)(F)F)CC1 |  |  |  |  |  |  |  |  |  | 81 | 11.4 | 9.1 | 7 | 81 | 100
